Assays:
[1] = tested on: hyperalgesia induced by the repeated administration of opiate analgesics; conditions: administered in vivo in the rat; cited from earlier work
[2] = target: T1, human NPFFR1 (hNPFFR1) receptor (Homo sapiens, UniProt Q9GZQ6); test: Human NPFFR1 evaluation using BRET biosensors (antagonist IC50); format: cell-based; conditions: hNPFFR1 transiently over-expressed in HEK-293 T cells; BRET signal; stimulation by EC80 RFRP-3
T1 construct: expressed in transfected cells; host or cells: HEK-293 T cells, transient co-transfection with polyethylenimine
Method in brief: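 HEK-293T cells co-transfected with receptor, GαoB and Gi-effector BRET biosensor pair, assayed 48 h later. Compound 10 min, then EC80 RFRP-3 with 10 min luminescence read; IC50 from 20-concentration variable-slope fit, duplicate, two independent experiments.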

[3] = tested on: morphine-induced hyperalgesia; test: Morphine-induced hyperalgesia model in the mouse (tail immersion test); format: in vivo; conditions: 10 mg/kg s.c.; morphine 10 mg/kg s.c. daily during 8 days; male C57/B16N mice; tail immersion test 47° C.
Protocol: This method, which detects opioid-induced hyperalgesia, follows those well-known by one skilled in the art and described in the literature (Elhabazi K et al., J Vis Exp. 2014; (89):e51264). The procedure applied to the compounds of the invention is as follows:
Nociceptive thresholds are assessed using the tail immersion test (TIT). After TIT, mice are treated daily during 8 consecutive days with morphine (10 mg/kg, sub-cutaneous s.c.) +/− tested compounds (10 mg/kg, s.c.) 20 min before morphine injection for example 31 and 32 and twice a day for examples 56 and 143 (20 min before morphine injection, and in the afternoon).
Mice used were male C57/B16N 8 weeks old at the beginning of the experiment. During TIT the tail of the animal is immersed two-thirds in a water bath at 47° C. and the withdrawal latency is recorded in seconds. The cutoff is 25 seconds, to avoid tissue damage. After TIT mice received an injection depending on their group then are replaced to their home cages.
FIGS. 1A and 1B show the mean time of tail withdrawal latency in each group of animals. The anti-hyperalgesia effect of the tested compounds was compared to vehicle-treated group using ANOVA test followed by the Bonferroni's test.

T1 sequence (Q9GZQ6 whole entry): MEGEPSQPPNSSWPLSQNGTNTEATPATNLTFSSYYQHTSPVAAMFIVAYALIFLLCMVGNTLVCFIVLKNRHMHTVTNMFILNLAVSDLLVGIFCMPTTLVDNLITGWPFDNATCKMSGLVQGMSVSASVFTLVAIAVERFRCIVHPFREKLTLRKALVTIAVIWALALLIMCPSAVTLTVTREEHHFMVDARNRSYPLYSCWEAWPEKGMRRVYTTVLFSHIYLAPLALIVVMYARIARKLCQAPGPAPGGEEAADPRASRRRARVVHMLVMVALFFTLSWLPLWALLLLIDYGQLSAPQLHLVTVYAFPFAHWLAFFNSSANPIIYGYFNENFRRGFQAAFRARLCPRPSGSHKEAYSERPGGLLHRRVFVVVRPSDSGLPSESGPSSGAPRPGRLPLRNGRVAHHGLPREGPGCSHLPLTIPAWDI

Row | Molecule | IC50 [2] [nM] | melting point [°C] | antihyperalgesic activity [1] | blockade of morphine-induced hyperalgesia (tail withdrawal latency) [3]
1 | Na-adamantan-1-yl-L-Arg-L-Phe-NH2 acetate [RF9] |  |  | antihyperalgesic activity | 
2 | CCc1nc(N)ccc1-c1c(F)ccc2cc(F)cnc12.Cl [Example 143, 5-(3,7-difluoroquinolin-8-yl)-6-ethylpyridin-2-amine] | < 100 | 245 to 250 |  | significant blockade of morphine-induced hyperalgesia
3 | Cl.Nc1ccc(-c2cccc3ccc(=O)[nH]c23)c(N)n1 [Example 56, 8-(2,6-diaminopyridin-3-yl)quinolin-2(1H)-one] | < 100 | > 250 |  | significant blockade of morphine-induced hyperalgesia

Continued, in another order:

Row | IC50 [2] [nM] | melting point [°C] | Molecule | antihyperalgesic activity [1] | blockade of morphine-induced hyperalgesia (tail withdrawal latency) [3]
4 | 100 to 1000 | > 250 | CCc1nc(N)ccc1-c1ccc(C)c2cccnc12.Cl [Example 96, 6-ethyl-5-(5-methylquinolin-8-yl)pyridin-2-amine] |  | 
5 | 100 to 1000 | > 250 | CCc1nc(N)ccc1-c1csc2ccc(F)cc12.Cl [Example 43, 6-Ethyl-5-(5-fluorobenzothiophen-3-yl)pyridin-2-amine] |  | 
6 | < 100 | 70 to 75 | CCc1nc(N)ccc1-c1cccc2ccc(-c3ccc4nccn4c3)nc12.Cl [Example 123, 6-ethyl-5-(2-(imidazo[1,2-a]pyridin-6-yl)quinolin-8-yl)pyridin-2-amine] |  | 
7 | 100 to 1000 | > 250 | CC(C)c1nc(N)ccc1-c1csc2ccccc12.Cl [Example 10, 5-Benzo[b]thiophen-3-yl-6-isopropyl-pyridin-2-ylamine] |  | 

Source: patent US20220298135A1, “5-HETEROARYL-PYRIDIN-2-AMINE COMPOUNDS AS NEUROPEPTIDE FF RECEPTOR ANTAGONISTS” (Domain Therapeutics, priority 2019, published 2022)
